Measurements as given in US20050100983A1, “Cell-free methods for identifying compounds that affect toll-like receptor 9 (TLR9) signaling” (Coley Pharmaceutical GmbH, priority 2003, published 2005).

Key:
[1] = biological target: T1, mTLR9ect-mut (D535→A and Y537→A) (Mus musculus, UniProt Q9EQU3, D535A/Y537A); test: SPR biosensor analysis of double mutated mTLR9ect-mut on CpG-DNA; assay type: binding, murine; settings: 200 nM protein, compared to wild-type mTLR9ect
T1 construct: mTLR9ect-mut (see below) (aa 1-816); made in house
T1 sequence (Q9EQU3 26-816 D535A/Y537A): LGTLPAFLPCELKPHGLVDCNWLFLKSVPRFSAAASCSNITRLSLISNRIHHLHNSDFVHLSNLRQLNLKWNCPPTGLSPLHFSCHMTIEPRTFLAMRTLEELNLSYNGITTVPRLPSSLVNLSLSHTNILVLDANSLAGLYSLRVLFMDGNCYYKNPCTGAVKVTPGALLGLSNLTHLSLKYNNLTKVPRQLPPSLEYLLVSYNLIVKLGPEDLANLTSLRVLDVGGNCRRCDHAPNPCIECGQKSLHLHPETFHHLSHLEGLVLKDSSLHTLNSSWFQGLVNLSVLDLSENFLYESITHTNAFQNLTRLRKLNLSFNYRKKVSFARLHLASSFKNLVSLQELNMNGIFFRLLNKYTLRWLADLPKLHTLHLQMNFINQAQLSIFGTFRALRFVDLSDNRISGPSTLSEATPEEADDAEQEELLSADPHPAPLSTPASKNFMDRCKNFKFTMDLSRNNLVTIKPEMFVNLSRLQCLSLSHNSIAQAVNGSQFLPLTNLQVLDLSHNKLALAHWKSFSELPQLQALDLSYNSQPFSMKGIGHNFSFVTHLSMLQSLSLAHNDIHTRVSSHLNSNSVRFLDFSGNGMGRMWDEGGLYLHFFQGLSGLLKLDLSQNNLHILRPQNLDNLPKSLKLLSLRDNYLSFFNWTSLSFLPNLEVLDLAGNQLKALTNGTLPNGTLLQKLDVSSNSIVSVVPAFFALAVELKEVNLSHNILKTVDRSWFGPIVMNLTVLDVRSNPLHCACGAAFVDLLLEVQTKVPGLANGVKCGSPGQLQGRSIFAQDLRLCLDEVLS
Description: FIG. 3B is a graph depicting SPR biosensor analysis of wild-type and double mutated mTLR9ect (mTLR9ect-mut, D535→A and Y537→A). Proteins were injected at 200 nM on sensor chips with immobilized CpG- and non-CpG-DNA and the sensorgrams recorded.
(§1) Mutation. For mutation of wild-type mTLR9 amino acids D535 and Y537 to two alanines, the primers 5′-[…]-3′ (SEQ ID NO:5) and 5′-[…]-3′ (SEQ ID NO:6) were used to generate mTLR9-mut. A site-specific-mutagenesis kit from Stratagene (Amsterdam, Netherlands) was applied according to the manufacturer's protocol. All PCR fragments were sequenced and found error-free.
SPR biosensor analysis. Real-time binding of TLR9 or TLR2 was measured by surface plasmon resonance biosensor technology using the BiaCore X system (Uppsala, Sweden). For analysis of TLR9 and TLR2 interaction, biotinylated CpG-DNA and non-CpG-DNA, or biotinylated Pam3CysK4 and PHCK4, respectively, were loaded in running buffer (50 mM MES, 150 mM NaCl, 1 mM MgCl2 at pH 6.5) on SA chips precoated with streptavidin (Biacore AB, Uppsala, Sweden). Non-CpG-DNA or PHCK4 (Wiesmuller K H et al. (1989) Vaccine 7:29-33) served as reference for CpG-DNA and Pam3CysK4 interaction (structure or sequence in Table 1). […] Binding was measured at 25° C. for 750 s (delay time 300 s). […] Sensorgrams were recorded and kinetic data were calculated by the BiaCore Evaluation program (Biacore, version 3.0.1). […]

[2] = test system: mTLR9mut (D535→A and Y537→A); test: NF-κB luciferase assay, HEK 293 cells transfected with mutated full length mTLR9; assay type: cell-based, murine; settings: 1 μM CpG-DNA
Description: FIG. 3D is a bar graph depicting activation of mTLR9- and mTLR9mut-transfected cells from FIG. 3C. Cells were stimulated with 1 μM CpG-DNA or 10 ng/ml of the TLR-independent stimulus 12-O-tetradecanoylphorbol 13-acetate (TPA) and subsequent NF-κB induction was analyzed. Activation is expressed as fold induction compared to no stimulation.
as §1
NF-κB luciferase assay. For monitoring transient NF-κB activation, 3×10^6 HEK 293 cells were electroporated at 200 volt and 950 μF with 20 ng of a NF-κB luciferase reporter plasmid (kindly provided by Patrick Baeuerle, Munich, Germany) and 1 μg mTLR2 (kindly provided by Tularik, Inc., South San Francisco, USA), mTLR9, or mTLR9-mut expression plasmid. Cells were seeded at 10^5 cells per well and after overnight culture stimulated with 1 μM phosphorothioated CpG-DNA 1668 (SEQ ID NO:1), 1 μM non-CpG-DNA 1668GC (SEQ ID NO:3), 1 μg/ml Pam3CysK4 or 1 μg/ml PHCK4 for further 8 hours. […]

murine TLR9 = settings: read-out: concentration for half-maximal activation of murine TLR9; cited from earlier work

In the case of “5′-TCCATGACGTTCCTGATGCT-3′ (chemistry not given here) [CpG-DNA 1668, synthetic CpG oligodeoxynucleotide, TLR9 ligand]”, the “binding of mTLR9ect-mut to CpG-DNA” value [1] is listed as “bound only weakly”, the “response of cells with mutated full length mTLR9 to CpG-DNA (NF-κB induction)” value [2] is listed as “did not respond” and the EC50 (murine TLR9) is listed as 70 nM.
